Measured values from publication PMC11472388 (ACS Medicinal Chemistry Letters, 2024).
Values joined by “and” are separate entries in the source; they are usually repeats but may differ in a detail not shown here. Identical values can stand only once. Like-named read-outs stand apart in the source and are kept apart here. Where a SMILES comes first, the peptide text is derived from it. Bridges are numbered along the chain shown (N, C = ends). [ ]: non-standard residue; d: D form. The star is where a group is joined. βGlc = OC[C@H]1O[C@@H](*)[C@H](O)[C@@H](O)[C@@H]1O; 1Nal = N[C@@H](Cc1cccc2ccccc12)C(=O)O

Assays:
[1] = test system: male and female DBA mice; assay: animal or person; format: in vivo; conditions: for ED50: Mus musculus, sc
Method: (§1) calculated and used as the peak response for determining ED50’s. Initial tests, based on previous studies with ZH853, were 3h in duration.
(§2) Additional subgroups (n = 4-5) were therefore tested for 5h. […] For the time course (Figure 3) […]
(§3) animals were used. Duration of antinociception was assessed using both the area under the curve (AUC) and duration of antinociception, calculated as the time from the first to the last time point greater than or equal to 50% MPE.
(§4) Hot Plate (HP) Test: This test reflects a supraspinally organized complex response, 6 and was used to assess the CNS activation of antinociception by peripherally (s.c.) administered […]
(§5) to reduce test compound requirements. The HP apparatus (IITC, Woodland Hills, CA) was set to 55.5°C, a temperature that elicited a response after 7-9 sec. Three baseline HP latencies to rapidly lift, lick, or shake the hind paws were taken prior to drug injection. Mice were removed from the HP after a maximum of 30 sec. Mice were injected with several analogs (0–5.6 mg/kg s.c.) and tested from 30–300 min after injection.
(%MPE) as described for TF. […]
each of those respective times was therefore calculated and used as the peak response for determining ED50’s. These values were used to calculate area under the curve (AUC). The duration of antinociception greater than 50% MPE was calculated as with TF.
Figure S3. Microdialysis and Pharmacokinetics Experiment Scheme.
Scheme depicts catheterization and microdialysis of the rat striatum. […]
endomorphin-1 analog (10 mg/kg; i.v.) ZH853 = ZH853•HCl (10 mg/kg; i.v.); aCSF = artificial cerebrospinal fluid. Created with BioRender.com (Agreement number MH26RXD2YP).
(1 picture or pasted object on this page, not shown here)

[2] = test system: male and female CD-1 mice; assay: Tail flick (TF) antinociception; format: in vivo; conditions: for ED50: Mus musculus, sc
From the text: (§6) using the microdialysis probe recovery rate. All data are presented as mean ± SEM.
For the dialysate, the mean
Animals: Male and female CD-1 and DBA mice, 21–29 g at testing, were obtained from Charles River (Wilmington, MA) and housed in a 12-h light/dark cycle. All experiments were approved by the Tulane Institutional Animal Care and Use Committee and conducted according to the NIH Guide for the Care and Use of Laboratory Animals. All efforts were made to minimize animal suffering and to reduce the number of animals used.
Tail Flick (TF): CD1 mice were used for this test. The latency to withdraw the tail from a heat source was automatically measured (IITC, Woodland Hills, CA). […]
with a cutoff time of 9 s to prevent tissue damage. Percent Maximum Possible Effect (%MPE) was determined as [(latency-baseline latency)/(9-baseline latency)]*100. […]
as §1, §2, §3, §4, §5
(%MPE) as described for TF.

[3] = molecular target: T1, mu opioid receptor (MOR) (Homo sapiens, UniProt P35372); assay: Opioid receptor binding (NIMH PDSP), MOR
T1 construct: NIMH Psychoactive Drug Screening Program (PDSP)
From the text: (§7) Ki determinations at the 3 canonical opioid receptors, MOR, DOR. and KOR. were generously performed by the NIMH Psychoactive Drug Screening Program (PDSP), directed by Bryan L. Roth at the University of North Carolina at Chapel Hill and Project Officer Jamie Driscoll at NIMH, Bethesda. MD.

[4] = molecular target: T2, kappa opioid receptor (KOR) (Homo sapiens, UniProt P41145); assay: Opioid receptor binding (NIMH PDSP), KOR
T2 construct: NIMH Psychoactive Drug Screening Program (PDSP)
From the text: as §7

[5] = In vivo microdialysis and plasma pharmacokinetics (BBB penetration); parameters: species or system Sprague-Dawley rats; conditions: rat, 10 mg/kg i.v.; for AUC Brain (estimated CSF, brain dialysate): striatal dialysate 0-60 min
Method: Following intravenous bolus injection, AUC, Cmax, half-life, and Tmax were determined in plasma and CSF dialysate, and the CSF/plasma ratios for AUC of the analogs were compared (Table 1).
Blood Brain Barrier Penetration and Pharmacokinetics
Animals: Male, Sprague-Dawley rats (225-325, n = 3/group; Envigo RMC Inc., Indianapolis, IN were used for in vivo microdialysis and pharmacokinetic experiments. Rats were co-housed in a temperature/humidity-controlled room on a 12-h reversed light/dark cycle. Food and water were available ad libitum. Animal studies were approved by The University of Arizona Institutional Animal Care and Use Committee, in accordance with NIH’s Care and Use of Laboratory Animals […]
Carotid Artery Catheterization and Microdialysis Surgery: Both procedures were performed in the same anesthetic event in accordance with our previous studies, with one exception, the left carotid artery was catheterized in each animal.2
In Vivo Microdialysis and Plasma Sampling: Blood-brain-barrier penetration and […]
same time to minimize injection site variations and individual differences between the animals. […]
following changes (Figure S3). 2, 4 The microdialysis probe (FZ-8-04; Amuza, San Diego, CA) was inserted into the striatum and perfused with aCSF (15 mM Tris HCl, 10 mM Tris base, 126 mM NaCl, 2.5 KCl, 1.2 mM NaH 2PO4, 2mM Na 2SO4, and adjusted pH to 7.4) at a rate of 0.5 µL/minute using one channel of a dual syringe pump (Fusion 101A Syringe Pump; Chemyx, Stafford, TX).
Boise, ID) and injected via the lateral tail vein. Brain dialysate samples used to estimate CSF were collected over 10 minutes, where t = 0 corresponds to the injection: t = -10, 0, 10, 20, 30, 40, 50, and 60 minutes. Blood was sampled to correspond with the median timepoint of the dialysate fraction, where t = 0 corresponds to the injection: t = -5, 0, 1, 5, 15, 25, 35, 45, and 55 […]
minutes. To separate plasma from whole blood, each sample was collected in ethylenediamine tetraacetic acid capillary tubes (CT-CB300-K2EDTA; Sarstedt, Nümbrecht, Germany), inverted repeatedly for 30 seconds, and centrifuged for 10 minutes at 2,000 x g in a refrigerated centrifuge (Galaxy Mini Centrifuge; VWR, Radnor, PA).
Brain dialysate (5 μL) and plasma (5 μL) were mixed with 5 μL and 50 μL of preservation solution […]
Enkephalin), respectively, and then vortexed for 10 seconds. 90 μL of cold acetone and deionized water (75:25, v/v) was added to precipitate dialysate and plasma proteins. After vortexing for 30 seconds, samples were centrifuged at 13,000 rpm for 15 minutes at 4 °C. The supernatant was evaporated using a Savant Speedvac concentrator. Dialysate and plasma samples were reconstituted in a 20 μL and 200 μL diluent (2% acetonitrile and 0.1% formic acid in deionized water), respectively. Samples were injected into the ThermoFisher UHPLC-MS/MS TSQ system.
Chromatographic separation was achieved on an ACQUITY UPLC HSS T3 C18 Column (100 Å, 1.8 µm, 2.1 X 100 mm) and VanGuard pre-column (HSS T3 1.8 μm, 2.1 X 5 mm) with the temperature set at 20 ℃. A water-acetonitrile gradient with a 0.3 mL/minute flow rate was used.
The mobile phases used were A: 0.1% v/v formic acid in deionized water and B: 0.1% v/v formic acid in acetonitrile. An injection volume of 8 µL was used. Detection was achieved using a Thermo Fisher TSQ Fortis Plus mass spectrometry instrument with an H-ESI ion source. The instrument was operated in a positive ion mode. The MRM mode was used for quantification using target […]
protonated ZH853 (MW 809.92 gmol-1). Concentrations were calculated using the response factor-concentration plot. Pharmacokinetic parameters, including the area under the curve (AUC), maximum plasma concentration (Cmax), the time to reach Cmax (Tmax), and half-life (t1/2), were […]
as §6

[6] = molecular target: KOR (Homo sapiens, UniProt P41145); assay: cell-based; conditions: HEK cells; means and SEMs of 3–6 assays; read-out: IC50 KOR (κ), cAMP
[7] = molecular target: T3, DOR (Homo sapiens, UniProt P41143); assay: Gi signaling (inhibition of cAMP) in opioid-receptor-expressing HEK cells, DOR; format: cell-based
T3 construct: host or cells: HEK cells expressing the receptor (from the earlier reading's assay name)
Method: (§8) Opioid-receptor-specific functional activity was assessed in cyclicAMP (cAMP) assays by PDSP.

[8] = molecular target: T4, MOR (Homo sapiens, UniProt P35372); assay: Gi signaling (inhibition of cAMP) in opioid-receptor-expressing HEK cells, MOR; format: cell-based
T4 construct: host or cells: HEK cells expressing the receptor (from the earlier reading's assay name)
Method: as §8

[9] = molecular target: T5, delta opioid receptor (DOR) (Homo sapiens, UniProt P41143); assay: Opioid receptor binding (NIMH PDSP), DOR
T5 construct: NIMH Psychoactive Drug Screening Program (PDSP)
From the text: as §7

[10] = tail flick, 10 mg/kg morphine, 1.8 mg/kg A2
[11] = male, Sprague-Dawley, iv, brain dialysate, read-out: Tmax Brain (dialysate) (converted)
[12] = male, Sprague-Dawley, iv, plasma, read-out: Tmax Plasma (converted)
[13] = male, Sprague-Dawley, brain dialysate, iv, 10 mg/kg, brain dialysate, read-out: Half-life Brain (dialysate)
[14] = male, Sprague-Dawley, plasma, iv, 10 mg/kg
[15] = male, Sprague-Dawley, plasma, iv, 10 mg/kg, plasma 0-55 min, n=3
[16] = male, Sprague-Dawley, plasma, iv, 10 mg/kg, plasma, read-out: Half-life Plasma

T4 sequence (P35372 whole entry): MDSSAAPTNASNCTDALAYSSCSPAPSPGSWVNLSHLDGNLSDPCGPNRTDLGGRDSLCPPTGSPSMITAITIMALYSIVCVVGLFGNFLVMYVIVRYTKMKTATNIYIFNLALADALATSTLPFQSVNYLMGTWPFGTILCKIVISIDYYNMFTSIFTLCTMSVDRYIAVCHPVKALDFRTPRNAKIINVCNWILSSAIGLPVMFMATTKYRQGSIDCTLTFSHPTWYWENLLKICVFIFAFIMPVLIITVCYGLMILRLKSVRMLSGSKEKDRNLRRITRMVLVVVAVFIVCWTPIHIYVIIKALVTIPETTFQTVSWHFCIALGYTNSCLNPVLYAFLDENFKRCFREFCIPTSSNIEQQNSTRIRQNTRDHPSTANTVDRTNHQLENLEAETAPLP
T1 sequence (P35372 whole entry): as above
T2 sequence (P41145 whole entry): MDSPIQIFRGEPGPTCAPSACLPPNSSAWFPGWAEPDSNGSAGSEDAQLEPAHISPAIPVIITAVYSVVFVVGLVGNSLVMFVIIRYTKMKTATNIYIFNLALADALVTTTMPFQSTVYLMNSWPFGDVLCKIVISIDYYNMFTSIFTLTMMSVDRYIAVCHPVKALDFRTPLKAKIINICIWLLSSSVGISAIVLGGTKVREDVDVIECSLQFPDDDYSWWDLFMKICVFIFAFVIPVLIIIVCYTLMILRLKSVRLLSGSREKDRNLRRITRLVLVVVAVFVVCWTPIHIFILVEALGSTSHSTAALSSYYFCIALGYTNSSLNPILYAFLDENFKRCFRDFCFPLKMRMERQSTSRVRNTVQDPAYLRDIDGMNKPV
T3 sequence (P41143 whole entry): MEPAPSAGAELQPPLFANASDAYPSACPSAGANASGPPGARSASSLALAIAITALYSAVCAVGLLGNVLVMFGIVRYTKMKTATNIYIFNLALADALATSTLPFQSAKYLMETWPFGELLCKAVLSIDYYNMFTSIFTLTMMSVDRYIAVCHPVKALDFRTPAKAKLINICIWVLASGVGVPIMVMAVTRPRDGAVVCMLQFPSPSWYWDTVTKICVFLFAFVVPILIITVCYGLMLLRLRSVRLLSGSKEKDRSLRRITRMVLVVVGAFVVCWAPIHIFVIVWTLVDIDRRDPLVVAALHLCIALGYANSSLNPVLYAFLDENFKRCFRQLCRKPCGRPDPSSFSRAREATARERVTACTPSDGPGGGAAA
T5 sequence (P41143 whole entry): as above
Sequence of KOR (P41145 whole entry): as the sequence (P41145 whole entry) above

## CN1CC[C@]23c4c5ccc(O)c4O[C@H]2[C@@H](O)C=C[C@H]3[C@H]1C5 [morphine]
[1]; female DBA mice, %MPE at peak response, read-out: Hot plate ED50 Female
  ED50: 2.33 ± 0.18 mg/kg
[1]; female DBA mice, read-out: Hot plate ED50 Female
  ED50: 6.99 ± 0.52 µmol/kg
[1]; male DBA mice, %MPE at peak response, read-out: Hot plate ED50 Male
  ED50: 2.82 ± 0.24 mg/kg
[1]; male DBA mice, read-out: Hot plate ED50 Male
  ED50: 8.43 ± 0.73 µmol/kg
[1]; hot plate
  Time of peak response: 30 to 45 min
[2]; female CD-1 mice, %MPE at peak response, read-out: Tail flick ED50 Female
  ED50: 1.57 ± 0.35 mg/kg
[2]; female CD-1 mice, read-out: Tail flick ED50 Female
  ED50: 4.69 ± 1.08 µmol/kg
[2]; male CD-1 mice, read-out: Tail flick ED50 Male
  ED50: 3.74 ± 0.39 µmol/kg
[2]; tail flick
  Time of peak response: 20 to 30 min
[2]; tail flick, 5.6 mg/kg
  Duration of antinociception: ~2 h
[2]; [10]
  Antinociception at matched doses: 100 %MPE
  Duration of antinociception at matched doses: > 3 h

## NC(=O)[C@H](CO[C@@H]1O[C@H](CO)[C@@H](O)[C@H](O)[C@H]1O)NC(=O)[C@@H]1CCC(=O)NCCCC[C@@H](NC(=O)[C@@H](N)Cc2ccc(O)cc2)C(=O)N[C@@H](Cc2cccc3ccccc23)C(=O)N[C@@H](Cc2ccccc2)C(=O)N1 [Analog A6] (H-Y[dK][1Nal]FES(βGlc)-NH2; lactam 2-5; N-terminus assumed)
[3]; relative to unglycosylated peptides
  Shift (reduction) of MOR affinity by glycosylation: ~5 fold

## NC(=O)[C@H](CO)NC(=O)[C@@H]1CCC(=O)NCCCC[C@@H](NC(=O)[C@@H](N)Cc2ccc(O)cc2)C(=O)N[C@@H](Cc2c[nH]c3ccccc23)C(=O)N[C@@H](Cc2ccccc2)C(=O)N1 [Analog A8]
[4]
  Ki: 1260 ± 145 nM

## NC(=O)[C@H](CO[C@@H]1O[C@H](CO)[C@@H](O)[C@H](O)[C@H]1O)NC(=O)[C@@H]1CCC(=O)NCCCC[C@@H](NC(=O)[C@@H](N)Cc2ccc(O)cc2)C(=O)N[C@@H](Cc2c[nH]c3ccccc23)C(=O)N[C@@H](Cc2ccccc2)C(=O)N1 [Analog A1]
[5]; [11]
  Tmax: 5 min
[5]; [12]
  Tmax: 1 min
[5]; [13]
  half-life: 16.6 ± 7.9 min
[5]; [14]
  Cmax: 15.7 ± 7.4 µM
[5]; [15]
  AUC: 2.62 µM·h
[5]; [16]
  half-life: 25.9 ± 5.7 min
[5]; 0-55 min
  AUC of plasma, increase over ZH853: ~ 1.5 fold
[5]; 0-60 min
  AUC of estimated CSF, increase over ZH853: ~ 8 fold
[5]; brain dialysate, 10 mg/kg
  Cmax Brain (dialysate): 10.8 ± 6.5 µM and 11 ± 7 µM
[5]; n=3, 10 mg/kg
  AUC Brain (estimated CSF, brain dialysate): 141.0 ± 69.2 µM·min and 141 ± 69 µM·min

## NC(=O)CNC(=O)[C@@H]1CCC(=O)NCCCC[C@@H](NC(=O)[C@@H](N)Cc2ccc(O)cc2)C(=O)N[C@@H](Cc2c[nH]c3ccccc23)C(=O)N[C@@H](Cc2ccccc2)C(=O)N1 [ZH853]
[6]
  IC50: 2270 ± 273 nM
[5]; [11]
  Tmax: 28 min
[5]; [12]
  Tmax: 2 min
[5]; [13]
  half-life: 6.1 ± 0.7 min
[5]; [14]
  Cmax: 16.5 ± 3 µM
[5]; [15]
  AUC: 1.83 µM·h
[5]; [16]
  half-life: 15.9 ± 2.3 min
[5]
  AUC CSF/Plasma ratio: 0.189
[5]; brain dialysate, 10 mg/kg
  Cmax Brain (dialysate): 1.5 ± 0.2 µM and 2 ± 0.2 µM
  Half-life Brain (dialysate): 6 ± 0.7 min
[5]; plasma 0-55 min, n=3, 10 mg/kg
  AUC Plasma: 110 ± 37 µM·min
[5]; plasma, 10 mg/kg
  Cmax: 17 ± 3 µM
  Half-life Plasma: 16 ± 2 min
[5]; n=3, 10 mg/kg
  AUC Brain (estimated CSF, brain dialysate): 20.7 ± 7.9 µM·min and 21 ± 8 µM·min
[7]
  IC50: 377 ± 166 nM
[8]
  IC50: 0.07 ± 0.04 nM
[8]; ratio of IC50
  Selectivity δ/μ (cAMP): 5220
  Selectivity κ/μ (cAMP): 31460
[3]
  Ki: 0.61 ± 0.2 nM
[3]; mean ± SEM of 3 replicate assays
  Ki MOR (μ): subnanomolar
[3]; ratio of Ki
  Selectivity δ/μ (binding): 631
  Selectivity κ/μ (binding): 2353
[9]
  Ki: 385 ± 61 nM
[4]
  Ki: 1440 ± 306 nM
